Experimental data taken from patent US11780845B2 (Relay Therapeutics, Inc., priority 2019, dated 2023).

Biological target: FGFR2 (Homo sapiens (Human), UniProt P21802)
Experiment: FGFR2 Biochemical Caliper Assay
Experimental: Compounds of the present invention were also tested in a FGFR2 Biochemical Caliper Assay. Compounds were prepared in 10 mM DMSO solution and serially diluted into 11 concentrations by 3-fold dilution. […] 5 uL of ATP solution (100 uM) was added to start the reaction and the plate was incubated for 90 minutes, then 70 uL of stopping buffer (0.5M EDTA) was added to terminate the reaction. Each well was analyzed using EZ reader.

Chain of FGFR2 (P21802 22-821): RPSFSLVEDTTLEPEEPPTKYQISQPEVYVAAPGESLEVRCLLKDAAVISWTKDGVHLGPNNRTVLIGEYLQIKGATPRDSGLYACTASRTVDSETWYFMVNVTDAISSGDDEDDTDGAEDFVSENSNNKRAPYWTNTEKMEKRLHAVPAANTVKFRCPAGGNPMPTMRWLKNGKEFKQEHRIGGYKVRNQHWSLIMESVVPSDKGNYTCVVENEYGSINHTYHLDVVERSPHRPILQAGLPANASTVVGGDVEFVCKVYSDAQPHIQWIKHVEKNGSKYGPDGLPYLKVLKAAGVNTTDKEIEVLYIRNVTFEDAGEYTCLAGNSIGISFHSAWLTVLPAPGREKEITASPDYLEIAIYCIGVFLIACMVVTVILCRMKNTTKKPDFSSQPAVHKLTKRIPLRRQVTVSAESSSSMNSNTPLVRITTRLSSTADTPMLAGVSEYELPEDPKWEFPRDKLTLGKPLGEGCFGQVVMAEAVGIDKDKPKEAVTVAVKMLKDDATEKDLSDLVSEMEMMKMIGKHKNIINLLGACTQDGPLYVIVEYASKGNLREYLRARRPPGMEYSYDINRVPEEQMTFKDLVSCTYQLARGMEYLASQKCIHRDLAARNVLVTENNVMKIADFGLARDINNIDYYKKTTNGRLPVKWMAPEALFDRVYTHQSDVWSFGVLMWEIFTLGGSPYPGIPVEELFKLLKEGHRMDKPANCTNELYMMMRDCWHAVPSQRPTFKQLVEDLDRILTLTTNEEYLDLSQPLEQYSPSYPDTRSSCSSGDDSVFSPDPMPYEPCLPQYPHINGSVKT

| Structure (SMILES) | IC50 [nM] |
| --- | --- |
| C=C(C)C(=O)Nc1ccc(-c2c(-c3ccc(CC(=O)N(C)C)c(F)c3)c3c(N)ncnc3n2C)cc1 [Example 173] | 1000 to 100000 |
| C=C(C)C(=O)Nc1ccc(-c2c(-c3ccc4c(c3)OCCN4C)c3c(N)ncnc3n2C)cc1 [Example 175] | < 100 |
| C=C(C)C(=O)Nc1ccc(-c2c(-c3ccc(N)c(OC(F)(F)F)c3)c3c(N)ncnc3n2C)cc1 [Example 177] | 1000 to 100000 |
| C=C(C)C(=O)Nc1ccc(-c2c(-c3ccc(-c4nccs4)cc3)c3c(N)ncnc3n2C)cc1 [Example 178] | 250 to 1000 |
| C=C(C)C(=O)Nc1ccc(-c2c(-c3cnn(Cc4ccncc4)c3)c3c(N)ncnc3n2C)cc1 [Example 179] | 1000 to 100000 |
| C=C(C)C(=O)Nc1ccc(-c2c(-c3ccc(S(C)(=O)=O)cc3C)c3c(N)ncnc3n2C)cc1 [Example 181] | 1000 to 100000 |
| C=C(C)C(=O)Nc1ccc(-c2c(-c3ccc(=O)n(Cc4ccccc4)c3)c3c(N)ncnc3n2C)cc1 [Example 182] | 1000 to 100000 |
| C=C(C)C(=O)Nc1ccc(-c2c(-c3cccc(C(=O)N4CCCC4)c3)c3c(N)ncnc3n2C)cc1 [Example 183] | 1000 to 100000 |
| C=C(C)C(=O)Nc1ccc(-c2c(-c3ccc(-n4cncn4)nc3)c3c(N)ncnc3n2C)cc1 [Example 184] | 1000 to 100000 |
| C=C(C)C(=O)Nc1ccc(-c2c(-c3ccc4[nH]c(C(=O)O)cc4c3)c3c(N)ncnc3n2C)cc1 [Example 185] | 1000 to 100000 |
| C=C(C)C(=O)Nc1ccc(-c2c(-c3ccc(OC4CCN(C)CC4)nc3)c3c(N)ncnc3n2C)cc1 [Example 187] | 1000 to 100000 |
| C=C(C)C(=O)Nc1ccc(-c2c(-c3ccc4c(c3)CCC4C(=O)N(C)C)c3c(N)ncnc3n2C)cc1 (stereo not drawn) [Example 191] | 1000 to 100000 |
| C=C(C)C(=O)Nc1ccc(-c2c(-c3ccc(-n4cccn4)nc3)c3c(N)ncnc3n2C)cc1 [Example 192] | 1000 to 100000 |
| C=C(C)C(=O)Nc1ccc(-c2c(-c3ccc4c(c3)CS(=O)(=O)C4)c3c(N)ncnc3n2C)cc1 [Example 193] | 1000 to 100000 |
| C=C(C)C(=O)Nc1ccc(-c2c(-c3ccc(OCC)c(OCC)c3)c3c(N)ncnc3n2C)cc1 [Example 196] | 1000 to 100000 |
| C=C(C)C(=O)Nc1ccc(-c2c(-c3ccc(CN(C)C(C)=O)cc3)c3c(N)ncnc3n2C)cc1 [Example 198] | 1000 to 100000 |
| C=C(C)C(=O)Nc1ccc(-c2c(-c3cc(O)c(Oc4ncccn4)c(CC)c3)c3c(N)ncnc3n2C)cc1 [Example 200] | 1000 to 100000 |
| C=C(C)C(=O)Nc1ccc(-c2c(-c3ccc4[nH]c(=O)n(C)c4c3)c3c(N)ncnc3n2C)cc1 [Example 203] | 1000 to 100000 |
| C=C(C)C(=O)Nc1ccc(-c2c(-c3ccc4c(c3)CC(NC(C)=O)C4)c3c(N)ncnc3n2C)cc1 (stereo not drawn) [Example 204] | 1000 to 100000 |
| C=C(C)C(=O)Nc1ccc(-c2c(-c3ccc4[nH]c(C(=O)N(C)C)cc4c3)c3c(N)ncnc3n2C)cc1 [Example 205] | 1000 to 100000 |
| C=C(C)C(=O)Nc1ccc(-c2c(-c3ccc(N4CCCC4=O)nc3)c3c(N)ncnc3n2C)cc1 [Example 208] | 1000 to 100000 |
| C=C(C)C(=O)Nc1ccc(-c2c(-c3ccc4c(c3)CN(C)C4=O)c3c(N)ncnc3n2C)cc1 [Example 209] | 1000 to 100000 |
| C=C(C)C(=O)Nc1ccc(-c2c(-c3cnc4c(c3)OCCN4C)c3c(N)ncnc3n2C)cc1 [Example 214] | 100 to 250 |

| Structure (SMILES) | IC50 [nM] |
| --- | --- |
| C=C(C)C(=O)Nc1ccc(-c2c(-c3ccc(Cc4nn[nH]n4)cc3)c3c(N)ncnc3n2C)cc1 [Example 218] | 1000 to 100000 |
| C=C(C)C(=O)Nc1ccc(-c2c(-c3cnn(CC4CCNCC4)c3)c3c(N)ncnc3n2C)cc1 [Example 221] | 1000 to 100000 |
| C=C(C)C(=O)Nc1ccc(-c2c(-c3ccc(N(C)C(=O)C4CCCC4)cc3)c3c(N)ncnc3n2C)cc1 [Example 222] | 1000 to 100000 |
| C=C(C)C(=O)Nc1ccc(-c2c(-c3ccc(Sc4ccccc4)nc3)c3c(N)ncnc3n2C)cc1 [Example 225] | 250 to 1000 |
| C=C(C)C(=O)Nc1ccc(-c2c(-c3ccc(NC(=O)C4CCC4)cc3)c3c(N)ncnc3n2C)cc1 [Example 226] | < 100 |
| C=C(C)C(=O)Nc1ccc(-c2c(-c3ccc(C(=O)N4CC5(CCC5)C4)cc3)c3c(N)ncnc3n2C)cc1 [Example 231] | 1000 to 100000 |
| C=C(C)C(=O)Nc1ccc(-c2c(-c3ccc4c(c3)CCN4C(=O)NC)c3c(N)ncnc3n2C)cc1 [Example 232] | 250 to 1000 |
| C=C(C)C(=O)Nc1ccc(-c2c(-c3ccc(C(=O)N4CC[C@H](OC)C4)cc3)c3c(N)ncnc3n2C)cc1 [Example 240] | 1000 to 100000 |
| C=C(C)C(=O)Nc1ccc(-c2c(-c3ccc(C(=O)N4CCC(OC)CC4)cc3)c3c(N)ncnc3n2C)cc1 [Example 242] | 1000 to 100000 |
| C=C(C)C(=O)Nc1ccc(-c2c(-c3ccc(C(=O)N4CC5(CCO5)C4)cc3)c3c(N)ncnc3n2C)cc1 [Example 243] | 1000 to 100000 |
| C=C(C)C(=O)Nc1ccc(-c2c(-c3ccc(C(=O)N(C)C4CCOC4)cc3)c3c(N)ncnc3n2C)cc1 (stereo not drawn) [Example 247] | 1000 to 100000 |
| C=C(C)C(=O)Nc1ccc(-c2c(-c3ccc4c(c3)CNC4=O)c3c(N)ncnc3n2C)cc1 [Example 250] | 1000 to 100000 |
| C=C(C)C(=O)Nc1ccc(-c2c(-c3ccc(C(=O)N4CCC(F)CC4)cc3)c3c(N)ncnc3n2C)cc1 [Example 251] | 250 to 1000 |
| C=C(C)C(=O)Nc1ccc(-c2c(-c3ccc(C(=O)N4CC[C@@H](OC)C4)cc3)c3c(N)ncnc3n2C)cc1 [Example 252] | 250 to 1000 |
| C=C(C)C(=O)Nc1ccc(-c2c(-c3ccc(OCC4CCCC4)cc3)c3c(N)ncnc3n2C)cc1 [Example 253] | 250 to 1000 |
| C=C(C)C(=O)Nc1ccc(-c2c(-c3ccc(C(=O)N(C)CCO)cc3)c3c(N)ncnc3n2C)cc1 [Example 254] | 250 to 1000 |
| C=C(C)C(=O)Nc1ccc(-c2c(-c3ccc(C(=O)N(C)c4ncccn4)cc3)c3c(N)ncnc3n2C)cc1 [Example 256] | 1000 to 100000 |
| C=C(C)C(=O)Nc1ccc(-c2c(-c3ccc(C(=O)N4CC(F)(F)C4)cc3)c3c(N)ncnc3n2C)cc1 [Example 259] | 1000 to 100000 |
| C=C(C)C(=O)Nc1ccc(-c2c(-c3ccc(C(=O)N4CC(C5CCOC5)C4)cc3)c3c(N)ncnc3n2C)cc1 (stereo not drawn) [Example 261] | 1000 to 100000 |
| C=C(C)C(=O)Nc1ccc(-c2c(C3=CCN(C(=O)NC)CC3)c3c(N)ncnc3n2C)cc1 [Example 268] | 1000 to 100000 |
| C=C(C)C(=O)Nc1ccc(-c2c(-c3ccc(C(=O)N(C)CC4CCCO4)cc3)c3c(N)ncnc3n2C)cc1 (stereo not drawn) [Example 269] | 1000 to 100000 |
| C=C(C)C(=O)Nc1ccc(-c2c(-c3ccc(C(=O)N4CCC5(COC5)C4)cc3)c3c(N)ncnc3n2C)cc1 [Example 271] | 1000 to 100000 |
| C=C(C)C(=O)Nc1ccc(-c2c(-c3ccc(C(=O)N(C)C4CC(F)(F)C4)cc3)c3c(N)ncnc3n2C)cc1 [Example 273] | 250 to 1000 |

| Structure (SMILES) | IC50 [nM] |
| --- | --- |
| C=C(C)C(=O)Nc1ccc(-c2c(-c3ccc(=O)n(C4CC4)c3)c3c(N)ncnc3n2C)cc1 [Example 275] | 1000 to 100000 |
| C=C(C)C(=O)Nc1ccc(-c2c(-c3ccc(-c4cc(C)no4)cc3)c3c(N)ncnc3n2C)cc1 [Example 277] | 250 to 1000 |
| C=C(C)C(=O)Nc1ccc(-c2c(-c3ccc(-c4cocn4)cc3)c3c(N)ncnc3n2C)cc1 [Example 278] | 250 to 1000 |
| C=C(C)C(=O)Nc1ccc(-c2c(-c3ccc(-c4nc(C)c(C)o4)cc3)c3c(N)ncnc3n2C)cc1 [Example 279] | 100 to 250 |
| C=C(C)C(=O)Nc1ccc(-c2c(-c3ccc(-c4nnc(NC)s4)cc3)c3c(N)ncnc3n2C)cc1 [Example 280] | 100 to 250 |
| C=C(C)C(=O)Nc1ccc(-c2c(-c3ccc4c(ccn4S(C)(=O)=O)c3)c3c(N)ncnc3n2C)cc1 [Example 281] | 1000 to 100000 |
| C=C(C)C(=O)Nc1ccc(-c2c(-c3ccc(C(=O)N(C)CCOC)cc3)c3c(N)ncnc3n2C)cc1 [Example 284] | 1000 to 100000 |
| C=C(C)C(=O)Nc1ccc(-c2c(-c3ccc(C4=NNC(C)O4)nc3)c3c(N)ncnc3n2C)cc1 (stereo not drawn) [Example 285] | 1000 to 100000 |
| C=C(C)C(=O)Nc1ccc(-c2c(-c3ccc(-c4nnc(C(F)(F)F)o4)cc3)c3c(N)ncnc3n2C)cc1 [Example 286] | 1000 to 100000 |
| C=C(C)C(=O)Nc1ccc(-c2c(-c3ccc4c(c3)C(C)N(C)C4=O)c3c(N)ncnc3n2C)cc1 (stereo not drawn) [Example 287] | 1000 to 100000 |
| C=C(C)C(=O)Nc1ccc(-c2c(-c3ccc(S(=N)(=O)N4CCCC4)cc3)c3c(N)ncnc3n2C)cc1 (stereo not drawn) [Example 317] | 250 to 1000 |
| C=C(C)C(=O)Nc1ccc(-c2c(-c3ccc(C(=O)NC(C)CO)cc3)c3c(N)ncnc3n2C)cc1 (stereo not drawn) [Example 319] | < 100 |
| C=C(C)C(=O)Nc1ccc(-c2c(-c3ccc(C(=O)NCCO)cc3)c3c(N)ncnc3n2C)cc1 [Example 322] | 250 to 1000 |
| C=C(C)C(=O)Nc1ccc(-c2c(-c3ccc(C(=O)NCC4CC(O)C4)cc3)c3c(N)ncnc3n2C)cc1 (stereo not drawn) [Example 323] | 100 to 250 |
| C=C(C)C(=O)Nc1ccc(-c2c(-c3ccc(S(=O)(=O)NC4CCCC4)cc3)c3c(N)ncnc3n2C)cc1 [Example 325] | 1000 to 100000 |
| C=C(C)C(=O)Nc1ccc(-c2c(-c3ccc(S(=O)(=O)NCC(F)(F)F)cc3)c3c(N)ncnc3n2C)cc1 [Example 326] | 1000 to 100000 |
| C=C(C)C(=O)Nc1ccc(-c2c(-c3ccc(C(=O)NC4CC(O)C4)cc3)c3c(N)ncnc3n2C)cc1 (stereo not drawn) [Example 328] | 250 to 1000 |
| C=C(C)C(=O)Nc1ccc(-c2c(-c3ccc(C(=O)NC4CC(CO)C4)cc3)c3c(N)ncnc3n2C)cc1 (stereo not drawn) [Example 330] | 100 to 250 |
| C=C(C)C(=O)Nc1ccc(-c2c(-c3ccc(C(=O)NCCCOC)cc3)c3c(N)ncnc3n2C)cc1 [Example 333] | 100 to 250 |
| C=C(C)C(=O)Nc1ccc(-c2c(-c3ccc(C(=O)NCC4CNC4)cc3)c3c(N)ncnc3n2C)cc1 [Example 334] | 250 to 1000 |
| C=C(C)C(=O)Nc1ccc(-c2c(-c3ccc(C(=O)NCCCO)cc3)c3c(N)ncnc3n2C)cc1 [Example 336] | 100 to 250 |
| C=C(C)C(=O)Nc1ccc(-c2c(-c3ccc(Oc4cccc(C#N)n4)cc3)c3c(N)ncnc3n2C)cc1 [Example 345] | < 100 |
| C=C(C)C(=O)Nc1ccc(-c2c(-c3ccc(C(=O)NCC4(O)CCC4)cc3)c3c(N)ncnc3n2C)cc1 [Example 347] | < 100 |
